In patent US10723716B2, “Alpha-helix mimetics as modulators of Abeta self-assembly” (New York University, priority 2016, dated 2020):
“Also recorded” adds a separate entry of the source.

What was measured:
Assay type in all cases: biochemical
Aβ42 [1] = biological target: T1, Aβ42 (Homo sapiens, UniProt P05067); assay: Seed-catalyzed kinetic assay, Aβ42; conditions: equimolar ratio, preformed fibers (seeds)
T1 construct: Cleavage of APP results in several Aβ isoforms; The predominant species are Aβ42 and Aβ40; purchased Anaspec (Fremont, Calif., USA)
T1 sequence (P05067 672-713 limits assumed): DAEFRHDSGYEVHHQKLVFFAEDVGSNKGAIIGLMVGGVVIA
Procedure: Seeds of Aβ40/Aβ42 were prepared by incubating 200 μM of Aβ40/Aβ42 in phosphate buffer at room temperature. The samples were aged for 48 h and the formation of fibers was confirmed by TEM and ThT before storage at −20° C. until use. For the aggregation of Aβ40, 10% (based on the monomeric Aβ40, v/v) seeds were added along with ThT in phosphate buffer to the 96-well plate. The aggregation was initiated by the addition of monomeric Aβ40 followed by gentle mixing. The process was similar in the case of Aβ42 except that the seed concentration was 5% (based on the monomeric Aβ42, v/v).
The seeds were generated by aging 200 μM Aβ peptides for 48 h in phosphate buffer with occasional vortexing. The concentration of seeds was calculated based on the monomeric concentration of Aβ.

Aβ42 [2] = biological target: T1, Aβ42; assay: Transmission electron microscopy (TEM) of Aβ42; conditions: for Aβ42 oligomers seen by TEM after addition to preformed oligomers: 5 μM Aβ42, compound added to preformed oligomers (2 h), equimolar
Procedure: Aβ42 (5 μM) was incubated in phosphate buffer in the absence and presence of the compounds of the invention at various time intervals and stoichiometric ratios. Aliquots of these samples were then applied to glow-discharged carbon-coated 300-mesh copper grids for 2 min and dried. Grids were negatively stained with uranyl acetate (2%, w/v) and dried. Micrographs of grids were examined on a Phillips CM12 Cryoelectron Microscope equipped with Gatan 4k×2.7k CCD camera at 120-kV accelerating voltage.

Aβ42 [3] = biological target: T1, Aβ42; assay: ThT-based kinetic assay of Aβ42 aggregation; conditions: for effect on Aβ42 oligomerization/fibrillation (ThT): equimolar ratio
From the text: The aggregation of Aβ42 was monitored using an established exogenous dye, Thioflavin T (ThT) that intercalates between the amyloid fibers along the perpendicular axis without affecting the kinetics of amyloid formation. (see Wolfe, L. S.; Calabrese, M. F.; Nath, A.; Blaho, D. V.; Miranker, A. D.; Xiong, Y. Proc. Natl. Acad. Sci. U.S.A. 2010, 107, 16863-16868; Levine, H. Protein Sci. 1993, 2, 404-410). A representative ThT-based kinetic assay results are depicted in FIG. 2. The oligomerization reaction of Aβ42 was initiated by diluting a 1 mM stock solution of Aβ42 (in DMSO) to a concentration of 20 μM in phosphate buffer (150 mM KCl, 50 mM NaPi, pH 7.4). Aβ42 fibrillation is a nucleation-dependent polymerization process and is characterized by a sigmoidal curve consisting of a lag phase, an elongation phase, and a plateau phase (FIG. 2a). The kinetic reaction was quantified by extracting t50, which is the time required to reach 50% of the maximum fluorescence that results from fibrillation. Under standard conditions the tso for Aβ42 fibrillation was 2.1±0.2 h (FIG. 2a and FIG. 8).
Kinetic assays were conducted on a FlexStation 3 Multi-Mode Microplate reader from Molecular Devices (Sunnyvale, Calif., USA). Experiments were conducted in triplicate in a 96-well plate with a final volume of 200 μL per well. Every measurement was an average of 50 readings. The aggregation of an amyloidogenic peptide (Aβ40, Aβ42, or IAPP) was initiated by the addition of the peptide from a stock solution (in DMSO, 0.5-1 mM) to phosphate buffer. The final concentration of each peptide was different based on their aggregation. The stoichiometry of ThT dye for each peptide was 0.5:1 (ThT:peptide). Peptide aggregation was monitored by ThT fluorescence (λex=445 nm and λem=485 nm). The blank sample contained all the components of the peptide samples except the peptide. The sample data were processed by subtracting the fluorescence of the blank sample. The fluorescence intensity data was then normalized by setting the maximum value to 1.
Kinetic assays in the presence of the compounds of the invention were conducted under the same conditions. The small molecules were added from a stock solution (1 mM or 10 mM in DMSO) to keep the final concentration of DMSO less than 1.0% (v/v). Small molecules were added to the wells with ThT and buffer and mixed gently with a pipette before adding the peptide. To keep the conditions identical, an equal amount of DMSO was added to the wells with the peptide-only control reactions.
Kinetic profiles were processed using Origin (version 9.1). Kinetic curves were fit using the built-in sigmoidal fit. Each run was fit independently to extract the t50 (time required to reach 50% of the maximum fluorescence intensity). Error bars represent standard deviations from the mean of at least three independent experiments.
In the delayed addition experiments, where the oligopyridylamides were added at various time points during Aβ amyloid reaction, the conditions were same (as used for the assays where Aβ was preincubated with the oligopyridylamides). The Aβ oligomerization process was initiated by dissolving Aβ into buffer solution and then oligopyridylamides were added to this solution at indicated time points (depend on the assay) at an equimolar ratio.

Row | Structure (SMILES) | effect on seed-catalyzed Aβ42 fibrillation (Aβ42 [1]) | Aβ42 oligomers seen by TEM after addition to preformed oligomers (Aβ42 [2]) | fibers of Aβ42 seen by TEM (Aβ42 [2]; 5 μM Aβ42, equimolar ratio, after 12 h) | effect on Aβ42 oligomerization/fibrillation (ThT) (Aβ42 [3]) | fibers of Aβ42 seen by TEM (Aβ42 [2]; 5 μM Aβ42, 1:0.1 (Aβ42:ADH-41), 24 h) | oligomers/fibers of Aβ42 seen by TEM (Aβ42 [2]; 5 μM Aβ42, 1:1 or 1:0.5 (Aβ42:ADH-41), even after 2 days) | elongated fibers seen by TEM in seed-catalyzed Aβ42 aggregation (Aβ42 [2]; 20 μM Aβ42 + seeds, equimolar ratio, 24 h) | change in ThT fluorescence intensity in control reaction (Aβ42 [3]; control reaction without Aβ42, matched conditions) | ThT fluorescence intensity characteristic of Aβ42 oligomers (Aβ42 [3]; sub-stoichiometric ratios of 1:0.5 and 1:0.1 (Aβ42:ADH-41))
1 | COC(=O)c1ccc(NC(=O)c2ccc(NC(=O)c3ccc(NC(=O)c4ccc([N+](=O)[O-])c(OCC(C)C)n4)c(OCc4ccccc4)n3)c(OCC(=O)O)n2)c(OCC(=O)O)n1 [ADH-31] | completely suppressed | No formation of Aβ42 oligomers | no fibers were recorded | wholly suppressed |  |  |  |  | 
2 | COC(=O)c1ccc(NC(=O)c2ccc(NC(=O)c3ccc([N+](=O)[O-])c(OCc4ccccc4)n3)c(OCCCN)n2)c(OCCCN)n1 [ADH-41] | completely arrested; also recorded: completely inhibits; also recorded: completely suppressed | No formation of Aβ42 oligomers |  | completely inhibited; also recorded: effectively blocks; also recorded: decreased significantly | sparse population of fibers | no formation of oligomers/fibers | no elongated fibers were observed | no change | < 10%
